The results in this text go back to patent publication US7622275B2, “Aequorin as a growth marker in yeast” (Sanofi-Aventis Deutschland GmbH, priority 2001, dated 2009).

Read-outs that look alike come from different tables or passages of the source.

Data set [1] has as its system S. cerevisiae. The settings on record: 100 μM in SC Glucose-Trp.
For data set [2], the system named is S. cerevisiae. Kind of data set: Aequorin growth marker signal upon toxic treatment (pYX132TPI-AEQ strain). It counts as cell-based, Saccharomyces cerevisiae. The settings on record: for Aequorin signal: 100 μM in SC Glucose-Trp; for Aequorin difference between toxic treatment and normal growth: 100 μM. As for the experimental part: As a yeast strain W303 MAT a, far::hisG, sst2::URA3^FOA, fus1::HIS3 was used.
The cells are distributed and/or grown in a white 96-well plate, in a volume of 100 μl.
30 minutes before the measurement time point, 10 μl of a 5 μM coelenterazine (Molecular Probes) solution is distributed in each well (to obtain a 0.5 μM final concentration) to load the cells.
The plate is then incubated at 30° C. for the last 30 minutes.
Aequorin detection is made in a luminometer with injecting system (Luminoskan, Labsystems). For each well, immediately after injection of a 10 mM CaCl2 solution (1 M CaCl2 diluted in lysis buffer Y-PER from Pierce), the luminescent signal is integrated for 15 seconds.
To avoid the intermediate step of loading, it is possible to introduce coelenterazine in the medium at the beginning of the assay: coelenterazine is added at a concentration of 0.5 μM.
(i.e. only half of the normal signal), and the starving cells give a signal of 64 r.l.u.

The subject of data set [3] is S. cerevisiae.

Turning to `O=C1Cc2cc(CCN3CCN(c4nsc5ccccc45)CC3)c(Cl)cc2N1` [Ziprasidone], the β-Galactosidase signal is 116 r.l.u with S. cerevisiae [1] (after 5 hours of treatment, normal growth 276, starving cells 64) and 1923 r.l.u with S. cerevisiae [1] (after 24 hours treatment, non treated cells 2275). The Aequorin signal with S. cerevisiae [2] (after 5 hours of treatment, normal growth 138, starving cells 16) worked out at 10 r.l.u; in the data set with S. cerevisiae [2] (after 24 hours treatment, normal growth 175), 50 r.l.u. Besides, the “Aequorin difference between toxic treatment and normal growth” value came to 10 fold with S. cerevisiae [2] (after 5 hours of treatment) and 3.5 fold with S. cerevisiae [2] (after 24 hours treatment). Moreover, the “toxic effects on S. cerevisiae” value with S. cerevisiae [3] is on record as “high toxic effects”. The OD630 in the data set with S. cerevisiae [3] (100 μM in SC Glucose-Trp, after 24 hours treatment, normal growth over 1) is on record as 0.5-0.7.
